Results from patent US20150344457A1, “METHODS OF INHIBITING PRMT5” (EPIZYME, INC., priority 2012, published 2015).

Assays:
PRMT5/MEP50 = molecular target: T1, PRMT5/MEP50 (Homo sapiens, UniProt O14744); experiment: PRMT5 Biochemical Assay (PRMT5/MEP50 enzyme assay on peptide substrate, 3H-SAM Flashplate); conditions: Table A-2; PRMT5/MEP50 4 nM, 3H-SAM 75 nM, peptide 40 nM; read-out: Biochemical IC50
T1 construct: Expressed full-length human Flag-PRMT5/6His-MeP50 protein complex was purified; made in house; host or cells: Spodoptera frugiperda (SF9) insect cells, baculovirus (pDEST8)

Z-138 cells = experiment: Z-138 Proliferation Assay (Cell Titer Glo, 5 days); format: cell-based; conditions: Homo sapiens, 120 h, Table A-2, 5 days, top concentration 20 μM
Outline: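 Exponentially growing Z-138 cells (10,000 cells/ml) in RPMI 1640 with 10% FBS are exposed to nine-point 3-fold dilutions (final top concentration 20 μM, 0.2% DMSO) for 5 days at 37° C. Viability is measured as ATP by CellTiter-Glo luminescence. The 50% inhibitory concentration comes from a 4-parameter fit.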

T1 sequence (O14744 with tags, fused parts or gaps): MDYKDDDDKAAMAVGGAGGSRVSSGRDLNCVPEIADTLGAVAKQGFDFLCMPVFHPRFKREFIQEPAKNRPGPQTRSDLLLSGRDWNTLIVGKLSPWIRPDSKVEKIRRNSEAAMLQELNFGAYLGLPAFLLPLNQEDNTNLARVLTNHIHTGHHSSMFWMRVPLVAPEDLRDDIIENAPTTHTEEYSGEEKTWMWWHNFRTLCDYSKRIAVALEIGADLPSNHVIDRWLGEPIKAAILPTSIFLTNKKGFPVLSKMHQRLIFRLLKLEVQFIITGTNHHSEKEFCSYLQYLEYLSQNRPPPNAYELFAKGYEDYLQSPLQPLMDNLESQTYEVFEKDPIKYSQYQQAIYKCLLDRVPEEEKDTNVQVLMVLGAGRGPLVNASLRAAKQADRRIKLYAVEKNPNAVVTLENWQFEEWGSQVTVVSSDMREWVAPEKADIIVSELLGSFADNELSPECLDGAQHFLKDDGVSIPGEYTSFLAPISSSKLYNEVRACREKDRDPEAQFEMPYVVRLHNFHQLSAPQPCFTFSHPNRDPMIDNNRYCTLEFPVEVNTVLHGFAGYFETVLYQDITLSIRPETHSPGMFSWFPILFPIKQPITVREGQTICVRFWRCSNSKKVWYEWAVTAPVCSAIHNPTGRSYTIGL
T1 sequence (Q9BQA1 with tags, fused parts or gaps partner limits assumed): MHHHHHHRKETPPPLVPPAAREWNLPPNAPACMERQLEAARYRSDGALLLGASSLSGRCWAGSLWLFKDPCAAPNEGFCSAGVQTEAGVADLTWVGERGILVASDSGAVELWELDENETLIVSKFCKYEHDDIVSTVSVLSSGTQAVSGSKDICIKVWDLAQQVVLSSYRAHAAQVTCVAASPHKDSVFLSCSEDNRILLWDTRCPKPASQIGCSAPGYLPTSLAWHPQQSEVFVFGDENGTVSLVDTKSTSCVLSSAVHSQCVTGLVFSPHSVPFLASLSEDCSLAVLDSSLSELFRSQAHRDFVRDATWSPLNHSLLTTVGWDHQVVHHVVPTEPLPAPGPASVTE

Structure (SMILES) | IC50 (PRMT5/MEP50) [nM] | EC50 (Z-138 cells) [nM]
CS(=O)(=O)N1CCc2c(cccc2OCC(=O)NCC(O)CN2CCc3ccccc3C2)C1 (stereo not drawn) [Compound A102] | < 100 | 1000 to 10000
CN(C)c1ccc2cccc(OCC(=O)NC[C@H](O)CN3CCc4ccccc4C3)c2n1 [Compound A104] | 101 to 1000 | > 20000
CN(C)c1ccc2cccc(OCC(=O)NC[C@@H](O)CN3CCc4ccccc4C3)c2n1 [Compound A105] | < 100 | 1000 to 10000
CS(=O)(=O)N1CCN(c2ccccc2OCC(=O)NCC(O)CN2CCc3ccccc3C2)CC1 (stereo not drawn) [Compound A106] | 101 to 1000 | > 20000
CN1CCN(S(=O)(=O)c2ccccc2OCC(=O)NCC(O)CN2CCc3ccccc3C2)CC1 (stereo not drawn) [Compound A108] | < 100 | 10000 to 50000
CN(C)S(=O)(=O)c1ccccc1OCC(=O)NCC(O)CN1CCc2ccccc2C1 (stereo not drawn) [Compound A109] | < 100 | 101 to 1000
O=C(COc1ccccc1S(=O)(=O)N1CCCC1)NCC(O)CN1CCc2ccccc2C1 (stereo not drawn) [Compound A110] | < 100 | 101 to 1000
CN(C)C(=O)c1ccccc1OCC(=O)NCC(O)CN1CCc2ccccc2C1 (stereo not drawn) [Compound A113] | 101 to 1000 | 10000 to 50000
CC(Oc1ccccc1S(C)(=O)=O)C(=O)NCC(O)CN1CCc2ccccc2C1 (stereo not drawn) [Compound A114] | 101 to 1000 | > 20000
Cn1cc2c(OCC(=O)NCC(O)CN3CCc4ccccc4C3)cccc2n1 (stereo not drawn) [Compound A118] | 101 to 1000 | > 20000
CN1CCc2cccc(OCC(=O)NCC(O)CN3CCc4ccccc4C3)c2C1 (stereo not drawn) [Compound A120] | 101 to 1000 | > 20000
CC(=O)N1CCN(S(=O)(=O)c2ccccc2OCC(=O)NCC(O)CN2CCc3ccccc3C2)CC1 (stereo not drawn) [Compound A122] | 101 to 1000 | > 20000
CNS(=O)(=O)c1ccccc1OCC(=O)NCC(O)CN1CCc2ccccc2C1 (stereo not drawn) [Compound A123] | < 100 | 1000 to 10000
O=C(COc1cccc2c1OCC(=O)N2)NCC(O)CN1CCc2ccccc2C1 (stereo not drawn) [Compound A124] | 1000 to 10000 | > 20000
CN(C)c1ncccc1OCC(=O)NCC(O)CN1CCc2ccccc2C1 (stereo not drawn) [Compound A127] | 101 to 1000 | > 20000
O=C(COc1cccc2ncc(=O)[nH]c12)NCC(O)CN1CCc2ccccc2C1 (stereo not drawn) [Compound A129] | 101 to 1000 | > 20000
O=C(COc1ccccc1-c1ncc[nH]1)NCC(O)CN1CCc2ccccc2C1 (stereo not drawn) [Compound A137] | 101 to 1000 | > 20000
CN(c1cccc(OCC(=O)NCC(O)CN2CCc3ccccc3C2)c1)S(C)(=O)=O (stereo not drawn) [Compound A142] | 101 to 1000 | > 20000

Continued, in another order:

IC50 (PRMT5/MEP50) [nM] | Structure (SMILES) | EC50 (Z-138 cells) [nM]
< 100 | O=C(COc1ccccc1C1CCNCC1)NCC(O)CN1CCc2ccccc2C1 (stereo not drawn) [Compound A103] | > 20000
< 100 | O=C(COc1ccccc1S(=O)(=O)N1CCNCC1)NCC(O)CN1CCc2ccccc2C1 (stereo not drawn) [Compound A107] | 1000 to 10000
< 100 | O=C(COc1ccccc1S(=O)(=O)N1CCC(O)C1)NCC(O)CN1CCc2ccccc2C1 (stereo not drawn) [Compound A111] | 101 to 1000
101 to 1000 | CNC(=O)c1ccccc1OCC(=O)NCC(O)CN1CCc2ccccc2C1 (stereo not drawn) [Compound A112] | > 20000
1000 to 10000 | O=C(COc1ccccc1C1CCNC1)NCC(O)CN1CCc2ccccc2C1 (stereo not drawn) [Compound A116] | > 20000
101 to 1000 | O=C(COc1ccccc1C1CCCNC1)NCC(O)CN1CCc2ccccc2C1 (stereo not drawn) [Compound A117] | 1000 to 10000
< 100 | O=C(COc1cccc2c1CNCC2)NCC(O)CN1CCc2ccccc2C1 (stereo not drawn) [Compound A119] | 10000 to 50000
< 100 | CN1CCCC(c2ccccc2OCC(=O)NCC(O)CN2CCc3ccccc3C2)C1 (stereo not drawn) [Compound A130] | 1000 to 10000
101 to 1000 | CN1CCC(c2ccccc2OCC(=O)NCC(O)CN2CCc3ccccc3C2)CC1 (stereo not drawn) [Compound A134] | > 20000
